From patent US11312719B2, “9-substituted amino triazolo quinazoline derivatives as adenosine receptor antagonists, pharmaceutical compositions and their use” (Merck Sharp & Dohme Corp., priority 2018, dated 2022)

What was measured:
[1] = biological target: human A2b adenosine receptor (Homo sapiens (Human), UniProt P29275); experiment: A2b radioligand filtration binding assay; conditions: for IC50: membranes from HEK293 cells expressing human A2b receptor
Protocol: Measurement of A2b Binding Affinity
The reported affinity of the compounds of the invention for the human A2b adenosine receptor was determined experimentally using a radioligand filtration binding assay. This assay measures the amount of binding of a tritiated proprietary A2b receptor antagonist, in the presence and absence of a compound of the invention, to membranes made from HEK293 cells recombinantly expressing the human A2b adenosine receptor (Perkin Elmer, Cat. No. ES-013-C).
148 μL (135 μg/mL) membranes and 2 μL test compounds were transferred to individual wells of a 96-well polypropylene assay plate and incubated for 15 to 30 minutes at room temperature with agitation. Tritiated radioligand was diluted to a concentration of 14 nM in assay buffer (phosphate buffered saline without Magnesium and Calcium, pH 7.4; GE Healthcare Life Sciences, Cat. No. SH30256.01) and then 50 μL of the solution were transferred to each well of the assay plate. To define total and non-specific binding, wells containing 1% DMSO and 20 μM N-ethylcarboxamidoadenosine (Tocris Bioscience, Cat. No. 1691) respectively, were also included. The wells of the assay plate were incubated at room temperature for 60 minutes with agitation, then filtered using a FilterMate Harvester® (Perkin Elmer) or similar equipment through a UniFilter-96® PEI coated plate (Perkin Elmer Cat. No. 6005274 or 6005277). Filtering was achieved by aspirating the contents of the assay plate for 5 seconds, then washing and aspirating the contents three times with ice-cooled wash buffer (assay buffer supplemented with 0.0025% Brij58) and allowing the vacuum manifold to dry the plate for 30 seconds. The filter plate was incubated for at least 1 hour at 55° C. and allowed to dry. The bottom of the filter plate was then sealed with backing tape. 40 μL Ultima Gold™ (Perkin Elmer, Cat. No. 6013329) was added to each well of the filter plate and the top of the plate was sealed with TopSeal-A PLUS® clear plate seal (Perkin Elmer, Cat. No. 6050185). The plates were then incubated for at least 20 minutes, and then the amount of radioactivity remaining in each well was determined using a TopCount® (Perkin Elmer) scintillation counter. After normalization to total and non-specific binding, the percent effect at each compound concentration was calculated. The plot of percent effect versus the log of compound concentration was analyzed electronically using a 4-parameter logistic fit based on the Levenberg-Marquardt algorithm to generate IC50 values.

[2] = biological target: human A2a adenosine receptor (Homo sapiens (Human), UniProt P29274); experiment: A2a receptor affinity radioligand binding assay ([3H] SCH58261); conditions: for IC50: membranes from HEK293 or CHO cells expressing human A2a receptor
Sequence of human A2a adenosine receptor (P29274 whole entry): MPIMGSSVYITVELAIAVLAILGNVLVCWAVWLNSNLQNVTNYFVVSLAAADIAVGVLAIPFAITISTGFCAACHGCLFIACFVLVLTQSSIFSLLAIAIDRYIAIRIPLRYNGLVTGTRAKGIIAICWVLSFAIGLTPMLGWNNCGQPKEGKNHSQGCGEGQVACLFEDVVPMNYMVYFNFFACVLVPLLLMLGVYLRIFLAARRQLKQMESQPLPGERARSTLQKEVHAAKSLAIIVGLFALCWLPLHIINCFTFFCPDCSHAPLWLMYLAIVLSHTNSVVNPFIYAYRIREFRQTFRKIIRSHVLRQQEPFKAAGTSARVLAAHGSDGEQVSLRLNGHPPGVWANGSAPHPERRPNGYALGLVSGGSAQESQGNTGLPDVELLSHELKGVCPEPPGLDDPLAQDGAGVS
Protocol: The A2a receptor affinity binding assay measured the amount of binding of a tritiated ligand with high affinity for the A2a adenosine receptor to membranes made from HEK293 or CHO cells recombinantly expressing the human A2a adenosine receptor, in the presence of varying concentrations of a compound of the invention.
Measurement of A2a Binding Affinity Using Radioligand Binding
148 μL (5 μg/mL) membranes (Perkin Elmer, Cat. No. RBHA2aM400UA) and 2 μL compounds of the invention to be tested (test compound) were transferred to individual wells of a 96-well polypropylene assay plate and incubated for 15 to 30 minutes at room temperature. [^3H] SCH58261 ((7-(2-phenylethyl)-5-amino-2-(2-furyl)-pyrazolo-[4,3-e]-1,2,4-triazolo[1,5-c]pyrimidine)) was diluted in assay buffer (50 mM Tris pH 7.4, 10 mM MgCl2, 0.005% Tween20) to a concentration of 4 nM and 50 μL transferred to each well of the assay plate. To define total and non-specific binding, wells containing 1% DMSO and 1 μM ZM241385 (Tocris Bioscience, Cat. No. 1036) respectively, were also included. The assay plate was incubated at room temperature for 60 minutes with agitation. Using a FilterMate Harvester® (Perkin Elmer), the contents of the assay plate were filtered through a UniFilter-96® PEI coated plate (Perkin Elmer Cat. No. 6005274 or 6005277). Filtering was achieved by aspirating the contents of the assay plate for 5 seconds, then washing and aspirating the contents three times with ice-cooled wash buffer (50 mM Tris-HCl pH 7.4, 150 mM NaCl) and allowing the vacuum manifold to dry the plate for 30 seconds. The filter plate was incubated for at least 1 hour at 55° C., and allowed to dry. The bottom of the filter plate was sealed with backing tape. 40 μL Ultima Gold™ (Perkin Elmer, Cat. No. 6013329) was added to each well of the filter plate and the top of the plate was sealed with TopSeal-A PLUS® clear plate seal (Perkin Elmer, Cat. No. 6050185). The plate was incubated for at least 20 minutes, and then the amount of radioactivity remaining in each well was determined using a TopCount® (Perkin Elmer) scintillation counter. After normalization to total and non-specific binding, the percent effect at each compound concentration was calculated. The plot of percent effect versus the log of compound concentration was analyzed electronically using a 4-parameter logistic fit based on the Levenberg-Marquardt algorithm to generate IC50 values.

Sequence of human A2b adenosine receptor (P29275 whole entry): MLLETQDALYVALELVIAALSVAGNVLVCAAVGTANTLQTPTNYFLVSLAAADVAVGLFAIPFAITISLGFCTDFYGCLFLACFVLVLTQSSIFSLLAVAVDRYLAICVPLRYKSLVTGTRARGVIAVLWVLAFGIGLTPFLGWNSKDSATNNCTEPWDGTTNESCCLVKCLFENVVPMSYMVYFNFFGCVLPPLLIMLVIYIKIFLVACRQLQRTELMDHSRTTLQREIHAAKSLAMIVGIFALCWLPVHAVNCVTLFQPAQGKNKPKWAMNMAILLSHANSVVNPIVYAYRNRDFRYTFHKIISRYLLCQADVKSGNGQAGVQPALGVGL

Row | SMILES | IC50 [1] [nM] | IC50 [2] [nM] | A2B binding % Inh. @ 10000 nM [1] [% Inh.] | A2A binding % Inh. @ 1000 nM ([2]; @ 1000 nM) [% Inh.]
1 | COc1cc2nc(N)n3nc(C4CC(F)CN(c5cnn(C6CCOCC6)c5)C4)nc3c2cc1F (single isomer, unassigned) [Example 56, 9-fluoro-2-((3R,5S or 3S,5R)-5-fluoro-1-(1-(tetrahydro-2H-pyran-4-yl)-1H-pyrazol-4-yl)piperidin-3-yl)-8-methoxy-[1,2,4]triazolo[1,5-c]quinazolin-5-amine] | 846 | 1.8 |  | 
2 | COc1cc2nc(N)n3nc(C45CC4CN(c4cnn(CC(C)(C)O)c4)C5)nc3c2cc1F (single isomer, unassigned) [Example 58, 1-(4-((1R,5R or 1S,5S)-1-(5-amino-9-fluoro-8-methoxy-[1,2,4]triazolo[1,5-c]quinazolin-2-yl)-3-azabicyclo[3.1.0]hexan-3-yl)-1H-pyrazol-1-yl)-2-methylpropan-2-ol] | 136 | 13.6 |  | 
3 | COc1cc2nc(N)n3nc(C4(F)CCN(c5cnn(CC(C)(C)O)c5)C4)nc3c2cc1F (single isomer, unassigned) [Example 62, (R or S)-1-(4-(3-(5-amino-9-fluoro-8-methoxy-[1,2,4]triazolo[1,5-c]quinazolin-2-yl)-3-fluoropyrrolidin-1-yl)-1H-pyrazol-1-yl)-2-methylpropan-2-ol] | 383 | 146 |  | 
4 | COc1cc2nc(N)n3nc(C4(F)CCN(c5cnn(CC(C)(C)O)c5)C4)nc3c2cc1F (single isomer, unassigned) [Example 63, (S or R)-1-(4-(3-(5-amino-9-fluoro-8-methoxy-[1,2,4]triazolo[1,5-c]quinazolin-2-yl)-3-fluoropyrrolidin-1-yl)-1H-pyrazol-1-yl)-2-methylpropan-2-ol] | 2430 | 242 |  | 
5 | COc1cc2nc(N)n3nc([C@@H]4CCCN(c5ncn(C(C)C(C)(C)O)n5)C4)nc3c2cc1F (single isomer, unassigned) [Example 64, (R or S)-3-(3-((R)-3-(5-amino-9-fluoro-8-methoxy-[1,2,4]triazolo[1,5-c]quinazolin-2-yl)piperidin-1-yl)-1H-1,2,4-triazolo-1-yl)-2-methylbutan-2-ol] | 555 | 1 |  | 
6 | COc1cc2nc(N)n3nc([C@@H]4CCCN(c5ncn(C(C)C(C)(C)O)n5)C4)nc3c2cc1F (single isomer, unassigned) [Example 65, (S or R)-3-(3-((R)-3-(5-amino-9-fluoro-8-methoxy-[1,2,4]triazolo[1,5-c]quinazolin-2-yl)piperidin-1-yl)-1H-1,2,4-triazolo-1-yl)-2-methylbutan-2-ol] | 228 | 1.2 |  | 

Continued, values first:

Row | IC50 [1] [nM] | IC50 [2] [nM] | A2B binding % Inh. @ 10000 nM [1] [% Inh.] | A2A binding % Inh. @ 1000 nM ([2]; @ 1000 nM) [% Inh.] | SMILES
7 | 5860 | 31.4 |  |  | COc1cc2nc(N)n3nc(C4CCCCN(c5cnn(CC(C)(C)O)c5)C4)nc3c2cc1F (single isomer, unassigned) [Example 60, (R or S)-1-(4-(3-(5-amino-9-fluoro-8-methoxy-[1,2,4]triazolo[1,5-c]quinazolin-2-yl)azepan-1-yl)-1H-pyrazol-1-yl)-2-methylpropan-2-ol]
8 | 99 | 5 |  |  | COc1cc2nc(N)n3nc(C4CCCCN(c5cnn(CC(C)(C)O)c5)C4)nc3c2cc1F (single isomer, unassigned) [Example 61, (S or R)-1-(4-(3-(5-amino-9-fluoro-8-methoxy-[1,2,4]triazolo[1,5-c]quinazolin-2-yl)azepan-1-yl)-1H-pyrazol-1-yl)-2-methylpropan-2-ol]
9 | 957 | 0.6 |  |  | COc1cc2nc(N)n3nc(C4CN(c5cnn(CC(C)(C)O)c5)CCC4C)nc3c2cc1F (single isomer, unassigned) [Example 66, 1-(4-((3S or 3R,4S or 4R)-3-(5-amino-9-fluoro-8-methoxy-[1,2,4]triazolo[1,5-c]quinazolin-2-yl)-4-methylpiperidin-1-yl)-1H-pyrazol-1-yl)-2-methylpropan-2-ol]
10 |  |  | 31 | 44 | COc1cc2nc(N)n3nc(C4CN(c5cnn(CC(C)(C)O)c5)CCC4C)nc3c2cc1F (single isomer, unassigned) [Example 67, 1-(4-((3R or 3S,4R or 4S)-3-(5-amino-9-fluoro-8-methoxy-[1,2,4]methylpiperidin-1-yl)-1H-pyrazol-1-yl)-2-methylpropan-2-ol]
11 |  | 181 | 31 |  | COc1cc(F)cc2c1nc(N)n1nc([C@@H]3C[C@H](F)CN(c4cnn(CC(C)(C)O)c4)C3)nc21 (single isomer, unassigned) [Example 68, 1-(4-((3R,5S or 3S,5R)-3-(5-amino-9-fluoro-7-methoxy-[1,2,4]triazolo[1,5-c]quinazolin-2-yl)-5-fluoropiperidin-1-yl)-1H-pyrazol-1-yl)-2-methylpropan-2-ol]
12 | 561 | 2.6 |  |  | COc1cc(F)cc2c1nc(N)n1nc([C@H]3C[C@@H](F)CN(c4cnn(CC(C)(C)O)c4)C3)nc21 (single isomer, unassigned) [Example 69, 1-(4-((3S,5R or 3R,5S)-3-(5-amino-9-fluoro-7-methoxy-[1,2,4]triazolo[1,5-c]quinazolin-2-yl)-5-fluoropiperidin-1-yl)-1H-pyrazol-1-yl)-2-methylpropan-2-ol]
13 | 786 | 0.6 |  |  | COc1cc(F)cc2c1nc(N)n1nc(C3CC(F)CN(c4cn(CC(C)(C)O)nc4C)C3)nc21 (single isomer, unassigned) [Example 70, 1-(4-((3R,5S or 3S,5R)-3-(5-amino-9-fluoro-7-methoxy-[1,2,4]triazolo[1,5-c]quinazolin-2-yl)-5-fluoropiperidin-1-yl)-3-methyl-1H-pyrazol-1-yl)-2-methylpropan-2-ol]
14 |  | 35.6 | 43 |  | COc1cc(F)cc2c1nc(N)n1nc(C3CC(F)CN(c4cn(CC(C)(C)O)nc4C)C3)nc21 (single isomer, unassigned) [Example 71, 1-(4-((3S,5R or 3R,5S)-3-(5-amino-9-fluoro-7-methoxy-[1,2,4]fltriazolo[1,5-c]quinazolin-2-yl)-5-fluoropiperidin-1-yl)-3-methyl-1H-pyrazol-1-yl)-2-methylpropan-2-ol]
15 | 484 | 2 |  |  | COc1cc(F)cc2c1nc(N)n1nc(C3CC(F)CN(c4cnn(CC5(O)CCC5)c4)C3)nc21 (single isomer, unassigned) [Example 72, 1-(4-((3R,5S or 3S,5R)-3-(5-amino-9-fluoro-7-methoxy-[1,2,4]triazolo[1,5-c]quinazolin-2-yl)-5-fluoropiperidin-1-yl)-1H-pyrazol-1-yl)methyl)cyclobutan-1-ol]
16 | 5120 | 436 |  |  | COc1cc(F)cc2c1nc(N)n1nc(C3CC(F)CN(c4cnn(CC5(O)CCC5)c4)C3)nc21 (single isomer, unassigned) [Example 73, 1-(4-((3S,5R or 3R,5S)-3-(5-amino-9-fluoro-7-methoxy-[1,2,4]triazolo[1,5-c]quinazolin-2-yl)-5-fluoropiperidin-1-yl)-1H-pyrazol-1-yl)methyl)cyclobutan-1-ol]
